We go through four compounds from US20050042256A1, “Lipid blends and food products containing oleic fatty acid and omega-6 fatty acids, designed to increase the intramyocellular lipid level” (priority 2001, published 2005).

Each structure is given as a SMILES string.

The test system of this test is Human skeletal muscle cells. The test can be described thus: IMCL (triacylglycerol) accumulation in muscle cells incubated with fatty acids. The format is cell-based. The settings on record: 0.5 mM FFA salt bound to albumin, DMEM + 25 mM glucose, 24 hrs at 37° C; FIGURE 1. As to the method:
Human skeletal muscle cells were used as a model to test the effect that different fatty acids (as precursors) may have on the extent of muscle triglyceride storage.
Primary cultures were initiated from a bank of satellite cells of muscle biopsies obtained from patients free of muscle disease. Aneural muscle cultures were established in a monolayer, then they were grown in a DMEM-M-199 medium, 3:1, supplemented with 10% fetal bovine serum, 10 μg/ml insulin, 2 mM glutamine, 25 ng/ml fibroblast growth factor, and 10 ng/ml epidermal growth factor. Immediately after myoblast fusion, cells were rinsed in Hank's balanced salt solution and a medium devoid of FGF, EGF, and glutamine was added. Muscle cultures were maintained in this medium for up to 4 weeks.
Cells were incubated with DMEM+glucose (25 mM)+0.5 mM FFA salt bound to albumin (in independent experiments for each FFA), for 24 hrs at 37° C. As examples for the fatty acids used in blend 1 (promoting IMCL storage), oleate (C18:1 cis), linoleate (C18:2 cis/cis), n-6 linoleate and n-3 linoleate.
As examples for the fatty acids used in blend 2 (inhibiting IMCL storage), octanoate (C8:0), palinitate (C16:0) and stearate (C18:0).
After incubation, cell lipids were extracted according to the method of Bligh and Dyer (Can. J. Biochem Physiol 37: 911-917, 1959). To determine the IMCL content, extracts were prepared by scraping cell monolayers in a buffer consisting of 50 mM Tris, 100 mM KCl, 20 mM KF, 0.5 mM EDTA and 0.05% Lubrol PX, pH 7.9, and they were sonicated three times for 5 seconds. Homogenates were centrifuged at 11′000 g for 15 min and the resulting supernatants were collected. Total triacylglycerol (i.e. IMCL) was measured with a Cobas-Bio autoanalyzer with a GPO-Trinder kit, with triolein resuspended in the extraction buffer as a standard. The intramyocellular nature of the triglycerides was evidenced by histo-chemical staining with Sudan III in 70% ethanol.
For the compound `CCCCC/C=C\C/C=C\CCCCCCCC(=O)O` [linoleate, linoleate (C18:2 cis/cis)], the “accumulation / synthesis of IMCL (total triacylglycerol)” value (from here on “accumulation / synthesis of IMCL”) is listed as “notably higher synthesis”.

As to `CCCCCCCC(=O)O` [octanoate, octanoate (C8:0)], the “accumulation / synthesis of IMCL” value is given as “no accumulation of IMCL”.

As to `CCCCCCCC/C=C\CCCCCCCC(=O)O` [oleate, oleate (C18:1 cis)], the “accumulation / synthesis of IMCL” value is listed as “notably higher synthesis”.

`CCCCCCCCCCCCCCCCCC(=O)O` [stearate, stearate (C18:0)]: the “accumulation / synthesis of IMCL” value was “moderate synthesis”.
